Results taken from US20180010188A1, “METHOD FOR DETECTING NONSENSE-MEDIATED RNA DECAY” (The Regents of the University of California, priority 2016, published 2018).

Columns and labels:
[1] = system: NMD and non-NMD isoforms of Srsf11, Ptbp2, Tra2b, Hnrnpl and Psd-95 (cellular NMD activity); experiment: RT-qPCR of endogenous NMD and non-NMD isoforms to monitor cellular NMD activity; format: cell-based, mouse
Source text: In our method, we measure the individual abundance of NMD-sensitive isoforms and that of their non-NMD counterparts via quantitative real-time PCR (qPCR). The NMD isoforms are first examined for differential expression between a treatment and a control condition. An increase in a NMD isoform may be due to NMD inhibition, transcriptional activation or a change in alternative splicing favoring the NMD isoform. These three scenarios can be distinguished by examining the expression of the non-NMD counterparts. Genuine NMD regulation, transcriptional activation and alternative splicing regulation would lead to no change, upregulation and down-regulation of the NMD-insensitive isoforms, respectively (FIG. 6A).
One technical difficulty of our method is designing RT-qPCR primers specific to the cassette exon-skipping isoform, whose entire sequence is contained in the inclusion isoform. To specifically detect an inclusion isoform, we designed a primer entirely annealing to the cassette exon (exon B in FIG. 1A). For the exclusion isoform, junction primers annealing to the exon-skipping junction appear to be the only choices. This can be either a reverse primer (FIG. 1A) with its 5′ portion matching the downstream constitutive exon (exon C) and its 3′ portion matching the upstream constitutive exon (exon A) or a forward primer (not shown) with its 5′ and 3′ portions matching the upstream and downstream exons, respectively. The challenge is herein illustrated with reverse primers but also applies to forward primers. Many exon-skipping junction primers are able to amplify the inclusion isoforms (FIGS. 7A-D). The longer the 3′ portion of the junction primer annealing to the upstream constitutive exon, the easier the primer amplifies the inclusion transcripts (FIG. 7B). Some exon-skipping junction primers with 3′ portions as short as six nucleotides, as we've observed, can still anneal to and detect the inclusion isoform at 55-60° C., albeit at a lower efficiency than its detection of the exclusion isoform. On the other hand, a longer 5′ portion and a shorter 3′ portion increase the possibility of the primer annealing to the exon B-exon C junction because of the sequence similarity around 5′ splice sites (FIGS. 7C-D). We therefore had to identify NMD-associated cassette exons containing a 3′ end unlike that of its upstream exon. We then screened multiple exon-skipping junction primers for one that amplified only the exclusion isoform and not the inclusion isoform. All primer pairs were tested and confirmed for their specificity, RT-qPCR efficiency and linear dynamic ranges (FIG. 10). Finally, two stably expressed housekeeping genes, Gapdh and Sdha, were used as internal controls for normalization by geometric averaging (Vandesompele et al., 2002. Genome Biol 3: RESEARCH0034).
Because our method can be used on its own can to infer NMD regulation with a low false positive rate, one of its applications is unbiased screening for changes in cellular NMD activity. We screened a small panel of widely used pharmacological inhibitors for their effects on NMD. The expression of both the NMD and non-NMD isoforms of Ptbp2, Srsf11, Tra2b, Hnrnpl and Psd-95 were simultaneously measured before and after drug treatment. When the levels of all of the NMD isoforms were altered by a chemical in the same direction, the expression of the NMD and non-NMD isoforms under the treatment and control conditions was then subjected to ANOVA analysis to determine differential regulation of the two isoforms. We were interested in drugs that affected the NMD isoforms across the board and more strongly than the non-NMD counterparts. With this criterion, we identified thapsigargin as having potent activity in blocking cellular NMD.
Neuro-2a (N2a) cells were maintained in N2a complete media consisting of L-glutamine-free Dulbecco's modified Eagle's medium (DMEM), 10% FBS and 1× GlutaMAX at 37° C. […]

[2] = system: cryptic isoforms of A230046K03Rik, Mib1 and Usp15; experiment: Quantitative analysis of TDP-43-repressed cryptic exon splicing; format: cell-based, mouse
Source text: To investigate the possible compounding effect of ER stress on TDP-43-mediated cryptic isoforms, we examined the expression of TDP-43-repressed cryptic exons with and without thapsigargin treatment. We designed specific PCR primers flanking the previously reported cryptic exons of A230046K03Rik, Mib1 and Usp15 and performed capillary electrophoresis to measure the ratios of the cryptic isoforms to the normal isoforms. The splicing of cryptic exons was not detected in cells treated with control siRNA or DMSO but was drastically boosted by RNAi-mediated depletion of Tdp-43 (FIGS. 5A-E).
Neuro-2a (N2a) cells were maintained in N2a complete media consisting of L-glutamine-free Dulbecco's modified Eagle's medium (DMEM), 10% FBS and 1× GlutaMAX at 37° C. Thapsigargin (VWR, cat. no. 89161-410), ionomycin (Fisher Scientific, cat. no. AG-CN2-0416-M001) and ouabain octahydrate (Fisher Scientific, cat. no. 80055-364) were dissolved in DMSO and stored at −80° C. […]
We optimized the PCR cycle numbers for Psd-95 (28 cycles), A230046K03Rik, Mib1 and Usp15 and eventually used 29 cycles for relative quantification of the transcript isoforms. […] The molar abundance (nM) of each isoform was quantified using QIAxcel Screengel software v1.4. Splicing of the cryptic exon was determined using the following formula. […]

[3] = N2a cells, 5 hours post-treatment

Row | Compound | concentration sufficient to revert the effect of thapsigargin on the NMD isoforms ([1]; N2a cells, thapsigargin plus GSK2606414, Psd-95, Ptbp2, Tra2b) [µM] | upregulation of the NMD isoforms in thapsigargin-treated cells ([1]; dose-dependent, 1 hour preincubation) | NMD activity in DMSO-treated cells ([1]; without thapsigargin) | NMD repression at 0.01 μM ([1]; 0.01 μM, 5 hours) | isoform upregulation relative to maximal upregulation ([1]; 0.02 μM) | earliest time of increase of NMD isoform transcripts ([1]; 0.2 μM thapsigargin, N2a cells) [h] | increase of non-NMD isoforms of Ptbp2 and Psd-95 ([1]; 0.2 μM, at 5 hours) | non-NMD isoform levels of Srsf11, Tra2b and Hnrnpl ([1]; 0.2 μM, at 5 hours) | fraction of full NMD inhibition detectable ([1]; 1 hour post-treatment, full inhibition at 5 hours) | concentration at which repressive effect on NMD started to plateau ([1]; N2a cells) [µM] | concentration at which Xbp1s splicing and NMD repression plateaued [1, 3] | lowest concentration at which NMD inhibition was observed [1, 3] [µM] | lowest concentration inhibiting NMD [1, 3] [nM] | NMD inhibition at concentrations above 0.2 μM ([1]; above 0.2 μM (data not shown)) | NMD isoforms in siPerk-pretreated cells ([1]; thapsigargin after 48 hours siPerk) | level of cryptic isoforms in mock-transfected or control siRNA-transfected cells ([2]; 0.2 μM thapsigargin) | level of cryptic isoforms in TDP-43-deficient cells ([2]; 0.2 μM thapsigargin after siTdp43)
1 | Cn1cc(-c2ccc3c(c2)CCN3C(=O)Cc2cccc(C(F)(F)F)c2)c2c(N)ncnc21 [GSK2606414] | ≥ 0.1 | effectively reversed | did not affect |  |  |  |  |  |  |  |  |  |  |  |  |  | 
2 | C/C=C(/C)C(=O)O[C@H]1C(C)=C2[C@H]([C@@H]1OC(=O)CCCCCCC)[C@@](C)(OC(C)=O)C[C@H](OC(=O)CCC)[C@@]1(O)[C@H]2OC(=O)[C@@]1(C)O [thapsigargin] |  |  |  | little NMD repression | about 20% | 1 | around 1.8 fold | barely changed | 20-30% | ≥ 0.2 | ≥ 0.1 | 0.02 | 20 | did not further increase NMD inhibition | none of the NMD isoforms were stimulated | no effect | further increased
